Measured values reported in patent US5962500A, “Insulin sensitivity with angiotensin II receptor blocking imidazoles” (priority 1994, dated 1999).
Counter-ions that a name gives are not always drawn.

What was measured:
[1] = test system: renal vasoconstrictor effect of NSAIDs; details: cited from earlier work
[2] = test system: effects of AII on the blood pressure of pithed rats; details: cited from earlier work
arterial pressure = details: cited from earlier work
[3] = biological target: AII receptor (rat adrenal cortical microsomes); assay: Angiotensin II receptor binding (displacement of 3H-AII); details: 2 nM 3H-AII, 1 hour at room temperature
Experimental: The hormone angiotensin II (AII) produces numerous biological responses (e.g. vasoconstriction) through stimulation of its receptors on cell membranes. […] The reaction mixture contained rat adrenal cortical microsomes (source of AII receptor) in Tris buffer and 2 nM of ^3 H-AII with or without potential AII antagonist. This mixture was incubated for 1 hour at room temperature and the reaction was subsequently terminated by rapid filtraton and rinsing through glass micro-fibre filter. Receptor-bound ^3 H-AII trapped in filter was quantitiated by scintillation counting.

[4] = test system: awake rats made hypertensive by ligation of the left renal artery; assay: Antihypertensive effects in renal hypertensive rats; type: in vivo, rat
Experimental: This procedure increases blood pressure by increasing renin production with consequent elevation of AII levels. Compounds are administered orally at 100 mg/kg and/or intravenously via a cannula in the jugular vein at 10 mg/kg. Arterial blood pressure is continuously measured directly through a carotid artery cannula and recorded using a pressure transducer and a polygraph. Blood pressure levels after treatment are compared to pretreatment levels to determine the antihypertensive effects of the compounds (See Table 1).
Compounds listed in Table 2 were tested in the same manner as described for Table 1, except that in the test for antihypertensive effects in renal hypertensive rats, the compounds were administered orally at 30 mg/kg and intravenously at 3 mg/kg.

[5] = test system: patients with severe hypertension; assay: Fasting glucose, fructosamine and insulin; type: in vivo, human; details: after Losartan
Experimental: (§1) At the time of the study only a three day wash-out period was allowed due to the severity of their hypertension.
(§2) A euglycemic glucose clamp procedure was performed three days after the initial screening, and after withdrawl from previous antihypertensive medications.
(§3) Fasting glucose was determined enzymatically, using a glucose dehydrogenase method and a Cobas Bio analyzer (Roche, Basel Switzerland). A Reflolux II (Mannheim Boehringer GmbH, Mannheim, Germany) was utilized to measure glucose concentration during the glucose clamp procedure (within run coefficient of variation <3% in our laboratory). Fructosamine was determined by calorimetric method. Insulin was measured by radioimmunoassay technique, using a specific antibody from Linco Research Inc. (St. Louis, Mo., USA). The lower limit of detection is 5 mU/l cross reactivity with proinsulin less than 1% and intra-assay coefficient of variation below 9% at all levels. Plasma catecholamines from specialized venous blood were measured by the radioenzymatic technique of Peuler Johnson as detailed in Kjelsen et al., Scan. J. Clin. Invest. 1993:42:217-23. Blood pressure and heart rate were measured oscillometrically with an Omega 1000™ Adult/Pediatric Blood Pressure Recorder (INVIVO Research Laboratories Inc., Tulsa Okla., USA).

[6] = test system: patients with severe hypertension; assay: Euglycemic hyperinsulinemic glucose clamp (insulin sensitivity); type: in vivo, human
Experimental: as §1, §2
The euglycemic hyperinsulinemic glucose "clamp" was performed using a modification of the method described by DeFronzo, et al. Am. J. Physiol. 1979:237: E214-23, as previously detailed by Moan, et al., Metabolism, in press. Insulin was infused at a fixed rate of 1 mU/kg/min. […] This index is a ratio of the glucose disposal rate to the mean level of insulin during the last 20 minutes of the glucose clamp multiplied by 100, and is given arbitrary units. Blood for baseline adrenaline and noradrenaline were sampled in duplicate and the results averaged.

[7] = test system: patients with severe hypertension; assay: Baseline plasma catecholamines (radioenzymatic); type: in vivo, human
Experimental: as §1, §2
The euglycemic hyperinsulinemic glucose "clamp" was performed using a modification of the method described by DeFronzo, et al. Am. J. Physiol. 1979:237: E214-23, as previously detailed by Moan, et al., Metabolism, in press. Insulin was infused at a fixed rate of 1 mU/kg/min. This technique for measuring the glucose disposal rate has a day-to-day coefficient of less than 5% percent. […] The steady state levels of insulin varied from one person to another, and as a result the insulin sensitivity index was also calculated. This index is a ratio of the glucose disposal rate to the mean level of insulin during the last 20 minutes of the glucose clamp multiplied by 100, and is given arbitrary units. Blood for baseline adrenaline and noradrenaline were sampled in duplicate and the results averaged.
as §3

[8] = test system: patients with severe hypertension; assay: Blood pressure and heart rate (oscillometric); type: in vivo, human; details: after Losartan
Experimental: as §1, §2, §3

pressor response to AII = assay: Inhibition of the pressor response to AII in conscious dogs; type: in vivo, dog
Experimental: (§4) The hypotensive effects of 2-butyl-4-chloro-1-[2'-(1H-tetrazol-5-yl)biphenyl-4-yl)methyl]-5-hydroxymethylimidazole sodium salt were compared before and after furosemide administration to conscious dogs. […] Plasma renin activity (PRA) in these animals was 1.5±0.5 ng AI/ml/hr. Four days later, furosemide was given to three of these dogs at 10 mg/kg im at 18 and 2 hours before the experiment and increased PRA to 19.9±7.2 ng AI/ml/hr. […] Thus a combined therapy of these two classes of drugs will be likely to increase the response rate to therapy among hypertensive patients.

conscious dogs = assay: Hypotensive effects in conscious dogs before and after furosemide; type: in vivo, dog
Experimental: as §4

Plasma renin activity = Plasma renin activity (PRA) in conscious dogs; type: in vivo, dog; details: furosemide 10 mg/kg im at 18 and 2 hours before; three dogs; before furosemide 1.5±0.5
Experimental: as §4

For `C[C@H](CS)C(=O)N1CCC[C@H]1C(=O)O` [captopril], the “reversal of renal vasoconstrictor effect of indomethacin” value ([1]; dogs with non-hypotensive hemorrhage) is listed as “reverse the renal vasoconstrictor effect of indomethacin”.

In the case of `CNCC(=O)N[C@@H](CCCN=C(N)N)C(=O)N[C@H](C(=O)N[C@@H](Cc1ccc(O)cc1)C(=O)N[C@H](C(=O)N[C@@H](Cc1cnc[nH]1)C(=O)N1CCC[C@H]1C(=O)N[C@@H](C)C(=O)O)C(C)C)C(C)C` [Saralasin, [Sar^1, Ala^8] AII], the “antagonism of the actions of AII” value ([2]; pithed rats) is given as “one of the most potent competitive antagonists of the actions of AII”, the agonistic actions ([2]; rat, in vivo) is given as “possesses agonistic actions of its own” and the “inhibition of renal vasoconstrictor effect of indomethacin” value ([1]; dogs) is given as “inhibit the renal vasoconstrictor effect”. The “inhibition of renal vasoconstrictor effect of meclofenamate” value ([1]; dogs) was “inhibit the renal vasoconstrictor effect”, the oral efficacy (arterial pressure; oral doses) was “oral doses being ineffective” and the “duration of pharmacological effects” value (arterial pressure; parenteral administration) was “relatively short-lasting”. The “effect on arterial pressure” value (arterial pressure; pressure dependent on circulating AII) was “lower arterial pressure in mammals and man” and the pressor effects (arterial pressure; pressure not sustained by AII) was “generally elicits pressor effects when the pressure is not sustained by AII”.

With `CCCCc1nc(Cl)c(C(=O)O)n1Cc1ccc(-c2ccccc2-c2nn[nH]n2)cc1` [EXP-3174] the IC50 [3] was 11 nM, the “Antihypertensive Effects in Renal Hypertensive Rats, Intravenous Activity” value ([4]; Table 2, 3 mg/kg) was “+ (Significant decrease in blood pressure at 3.0 mg/kg or less)” and the “Antihypertensive Effects in Renal Hypertensive Rats, Oral Activity” value ([4]; Table 2, 30 mg/kg) was “+ (Significant decrease in blood pressure at 30 mg/kg or less)”.

In the case of `CCCCc1nc(Cl)c(CO)n1Cc1ccc(-c2ccccc2-c2nnn[nH]2)cc1` [Losartan, 2-n-butyl-4-chloro-5-hydroxymethyl-1-[(2'-(1H-tetrazol-5-yl)biphenyl-4-yl)methyl]imidazole], the fasting glucose ([5]; baseline 5.0±0.3, non-significant) is reported as 4.8 ± 0.1 mmol/L, the fasting serum insulin ([5]; baseline 12±3, unchanged) is reported as 12±2 mU/l and the fructosamine ([5]; baseline 227±18, non-significant) is reported as 217 ± 11 µmol/L. The “increase in glucose disposal rate” value ([6]; Losartan vs baseline, p<0.05) was 27%, the glucose disposal rate ([6]; after Losartan 50-100 mg oral once a day, average about 6 weeks, baseline 6.2±2.6, p<0.05) was 7.9±2.6 mg/kg×min and the “average plasma insulin level during second clamp” value ([6]; insulin infused 1 mU/kg/min, end of Losartan monotherapy, first clamp 85±11) was 80±7 mU/l. The “Antihypertensive Effects in Renal Hypertensive Rats, Intravenous Activity” value ([4]; Table 1, 10 mg/kg) was “+ (Significant decrease in blood pressure at 10 mg/kg or less)”, the “Antihypertensive Effects in Renal Hypertensive Rats, Oral Activity” value ([4]; Table 1, 100 mg/kg) was “+ (Significant decrease in blood pressure at 100 mg/kg or less)” and the “decrease in baseline plasma noradrenaline” value ([7]; Losartan vs before treatment, p<0.05) was 40%. The plasma adrenaline ([7]; after Losartan, before treatment 0.23±0.10, n.s.) was 0.22 ± 0.11 nmol/L, the baseline plasma noradrenaline ([7]; after Losartan, before treatment 1.87±0.53, p<0.05) was 1.11 ± 0.13 nmol/L and the baseline heart rate ([8]; before treatment 65±9, n.s.) was 68±12 beats/min. For the same compound, the “baseline mean blood pressure” value ([8]; before treatment 132±10, p<0.05) was 119±13 mmHg.

For `CCCCc1nc(Cl)c(CO)n1Cc1ccc(-c2ccccc2-c2nn[nH]n2)cc1` [2-butyl-4-chloro-1-[2'-(1H-tetrazol-5-yl)biphenyl-4-yl)methyl]-5-hydroxymethylimidazole sodium salt], the “inhibition of pressor response to AII” value (pressor response to AII; after furosemide, cumulative iv, same doses) was “inhibited the pressor response to AII at the two higher doses”, the “inhibition of pressor response to AII” value (pressor response to AII; before furosemide, AII 0.1 μg/kg iv, 10 min post dose, cumulative iv 0.3 to 3 mg/kg) was “effective in inhibiting the pressor response to AII” and the blood pressure lowering (conscious dogs; conscious dogs after furosemide 10 mg/kg im at 18 and 2 hours before, cumulative iv, same doses) was “significant decrease in blood pressure in a dose-dependent manner”. For the same compound, the blood pressure lowering (conscious dogs; normotensive conscious dogs, before furosemide, cumulative iv 0.3 to 3 mg/kg, n=4) was “did not lower blood pressure”.

In the case of `NS(=O)(=O)c1cc(C(=O)O)c(NCc2ccco2)cc1Cl` [furosemide], the “Plasma renin activity (PRA)” value (Plasma renin activity) is reported as 19.9±7.2 ng AI/ml/hr.
